Results published in article doi:10.1101/641969v1 (biorxiv, 2019).

Columns and labels:
[1] = target: T1, PmCntL (Paenibacillus mucilaginosus, UniProt H6NF62); test: TLC of products from carboxyl-[…]-labeled SAM; type: biochemical; conditions: 10 µM D-histidine, 2.5 µM [14C]SAM, pH 9, 28 °C, 30 min
T1 sequence (H6NF62 1-276): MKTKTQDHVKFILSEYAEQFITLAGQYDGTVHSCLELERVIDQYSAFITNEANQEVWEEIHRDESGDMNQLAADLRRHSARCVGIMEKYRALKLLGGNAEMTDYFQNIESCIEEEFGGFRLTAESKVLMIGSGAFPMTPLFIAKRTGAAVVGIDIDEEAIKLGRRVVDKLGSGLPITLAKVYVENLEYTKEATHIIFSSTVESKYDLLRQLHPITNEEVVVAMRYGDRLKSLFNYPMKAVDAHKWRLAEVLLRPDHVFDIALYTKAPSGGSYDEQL

[2] = target: T2, PmCntM (Paenibacillus mucilaginosus, UniProt H6NF63); test: NADPH oxidation at […] nm, initial rates; type: biochemical
T2 sequence (H6NF63 1-440): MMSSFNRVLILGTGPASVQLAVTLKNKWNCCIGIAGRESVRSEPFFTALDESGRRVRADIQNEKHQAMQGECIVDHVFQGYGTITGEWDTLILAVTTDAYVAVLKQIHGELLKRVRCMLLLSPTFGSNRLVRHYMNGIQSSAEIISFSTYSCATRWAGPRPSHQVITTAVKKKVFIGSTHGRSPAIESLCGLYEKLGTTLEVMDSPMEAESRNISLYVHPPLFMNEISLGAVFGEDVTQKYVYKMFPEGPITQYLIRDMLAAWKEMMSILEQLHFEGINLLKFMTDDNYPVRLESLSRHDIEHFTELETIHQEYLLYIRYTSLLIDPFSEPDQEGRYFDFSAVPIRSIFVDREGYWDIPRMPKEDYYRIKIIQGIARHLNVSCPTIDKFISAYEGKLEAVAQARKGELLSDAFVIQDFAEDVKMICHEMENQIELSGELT

[3] = target: T3, SaCntM (Staphylococcus aureus, UniProt A0A0H3JT80); test: NADPH oxidation at […] nm, initial rates, Michaelis-Menten fit; type: biochemical; conditions: 0.2 mM NADPH, 1 mM pyruvate, pH 7, 28 °C
T3 sequence (A0A0H3JT80 1-433): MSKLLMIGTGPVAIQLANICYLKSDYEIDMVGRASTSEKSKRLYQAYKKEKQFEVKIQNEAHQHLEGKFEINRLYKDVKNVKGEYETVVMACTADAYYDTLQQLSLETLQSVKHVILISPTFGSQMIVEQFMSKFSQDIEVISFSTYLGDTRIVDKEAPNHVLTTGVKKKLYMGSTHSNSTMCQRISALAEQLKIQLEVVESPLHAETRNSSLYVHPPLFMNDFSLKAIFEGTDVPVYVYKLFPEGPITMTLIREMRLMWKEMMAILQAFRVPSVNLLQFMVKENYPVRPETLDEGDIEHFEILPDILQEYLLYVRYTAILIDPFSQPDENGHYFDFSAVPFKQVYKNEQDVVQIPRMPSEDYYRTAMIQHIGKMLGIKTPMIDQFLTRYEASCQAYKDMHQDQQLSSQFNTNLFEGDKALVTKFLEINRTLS

[4] = target: T4, PaCntM (Pseudomonas aeruginosa, UniProt Q9HUX5); test: NADH oxidation at […] nm, initial rates, Michaelis-Menten fit; conditions: 0.2 mM NADH, 1 mM α-ketoglutarate, pH 8, 28 °C
T4 sequence (Q9HUX5 1-433): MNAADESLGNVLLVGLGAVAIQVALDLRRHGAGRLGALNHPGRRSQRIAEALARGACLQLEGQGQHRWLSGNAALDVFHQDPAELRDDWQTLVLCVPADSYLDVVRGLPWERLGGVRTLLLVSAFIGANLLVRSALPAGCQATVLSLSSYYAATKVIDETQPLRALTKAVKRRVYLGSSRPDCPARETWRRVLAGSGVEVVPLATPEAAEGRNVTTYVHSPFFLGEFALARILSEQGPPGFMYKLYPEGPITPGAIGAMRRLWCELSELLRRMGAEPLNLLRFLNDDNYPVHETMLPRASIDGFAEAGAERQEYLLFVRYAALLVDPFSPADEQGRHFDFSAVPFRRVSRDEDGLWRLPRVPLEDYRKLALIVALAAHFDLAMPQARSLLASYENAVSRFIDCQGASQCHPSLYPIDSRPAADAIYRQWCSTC

[5] = target: T3, SaCntM; test: NADPH oxidation at […] nm, initial rates, substrate inhibition model; type: biochemical; conditions: 0.2 mM NADPH, 1 mM pyruvate, pH 7, 28 °C
[6] = target: T4, PaCntM; test: NADH oxidation at […] nm, initial rates, substrate inhibition model; type: biochemical; conditions: 0.2 mM NADH, 1 mM α-ketoglutarate, pH 8, 28 °C
[7] = target: T4, PaCntM; test: as above; type: biochemical; conditions: 0.2 mM NADH, 1 mM α-ketoglutarate, pH 8, 28 °C; remark: listed apart in the source
[8] = target: T3, SaCntM; test: NADPH oxidation at […] nm, initial rates, substrate inhibition model; type: biochemical; conditions: 0.2 mM NADPH, 1 mM pyruvate, pH 7, 28 °C; remark: listed apart in the source

TLC of products from carboxyl-[14C]-labeled SAM [1] | Structure (SMILES) | Km [2] | Km [3] | Km [4] | Ki [5] | Km [6] | Ki [7] | Km [8]
PmCntL uses D-His and not L-His | N[C@H](Cc1c[nH]cn1)C(=O)O [D-histidine] | – | – | – | – | – | – | –
– | N[C@@H](CCN[C@H](Cc1c[nH]cn1)C(=O)O)C(=O)O [xNA] | 12 ± 1 µM | 23 ± 3 µM | 54 ± 20 µM | – | – | – | –
– | N[C@@H](CCN[C@@H](Cc1c[nH]cn1)C(=O)O)C(=O)O [yNA] | 7 ± 1 µM | – | – | 2300 ± 800 µM | 21 ± 7 µM | 2400 ± 1000 µM | 47 ± 9 µM
